Results from ChEMBL document CHEMBL1201862, “PubChem BioAssay data set” (2004).
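Five compound concentrations were applied to cells in 96-well plates for 48 hours; endpoints were derived by simple linear interpolation of the resulting dose-response curve. GI50 = concentration required for 50% inhibition of growth.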 Calls of active or inactive are those of the source. No stated cut-off is given here; in the data, active = GI50 up to about 1.1 µM and inactive = higher.

Tests used:
Assay in all cases: growth of human tumour cells (NCI), 48 h
[1] = tested on: A498
[2] = tested on: ACHN
[3] = tested on: CAKI-1
[4] = tested on: HCC 2998
[5] = tested on: HCT-15
[6] = tested on: HT-29
[7] = tested on: NCI-H226
[8] = tested on: NCI-H23
[9] = tested on: NCI-H522
[10] = tested on: NCI/ADR-RES
[11] = tested on: OVCAR-4
[12] = tested on: OVCAR-5
[13] = tested on: SF-268
[14] = tested on: SF-539
[15] = tested on: SK-MEL-28
[16] = tested on: SK-OV-3
[17] = tested on: SNB-19
[18] = tested on: SNB-75
[19] = tested on: TK-10
[20] = tested on: UACC-62

Row | SMILES | GI50 [1] | GI50 [2] | GI50 [3] | GI50 [4] | GI50 [5] [µM] | GI50 [6] | GI50 [7] | GI50 [8] | GI50 [9] | GI50 [10] | GI50 [11] | GI50 [12] | GI50 [13] | GI50 [14] | GI50 [15] | GI50 [16] | GI50 [17] | GI50 [18] | GI50 [19] | GI50 [20]
1 | COc1cccc(/C=N/NC(=O)CN(C)C)c1O | > 100 µM (inactive) | > 100 µM (inactive) | > 100 µM (inactive) | > 100 µM (inactive) | > 100 | > 100 µM (inactive) | 72.8 µM (inactive) | > 100 µM (inactive) | > 100 µM (inactive) | > 100 µM (inactive) | > 100 µM (inactive) | > 100 µM (inactive) | > 100 µM (inactive) | > 100 µM (inactive) | > 100 µM (inactive) | > 100 µM (inactive) | > 100 µM (inactive) | < 0.01 µM (active) | > 100 µM (inactive) | > 100 µM (inactive)
2 | CNC(=O)OC(COC)CN1CCN(c2ccccc2C)CC1 (centres undefined) | > 10 µM (inactive) | > 10 µM (inactive) | > 10 µM (inactive) | > 10 µM (inactive) | > 10 | > 10 µM (inactive) | > 10 µM (inactive) | > 10 µM (inactive) | > 10 µM (inactive) | > 10 µM (inactive) | > 10 µM (inactive) |  | > 10 µM (inactive) | > 10 µM (inactive) | > 10 µM (inactive) | > 10 µM (inactive) | > 10 µM (inactive) | > 10 µM (inactive) | > 10 µM (inactive) | > 10 µM (inactive)
3 | CCOC(=O)/C(=C\c1ccnc2ccccc12)P(=O)(OCC)OCC | 1.77 µM (inactive) | 2.08 µM (inactive) | 2.25 µM (inactive) | 12.9 µM (inactive) | 1.47 | 2.16 µM (inactive) | 10.5 µM (inactive) | 1.9 µM (inactive) | 1.33 µM (inactive) | 1.72 µM (inactive) | 2.26 µM (inactive) | 2.25 µM (inactive) | 2.53 µM (inactive) | 1.47 µM (inactive) | 1.57 µM (inactive) | 4.99 µM (inactive) | 3.65 µM (inactive) | 3.49 µM (inactive) | 4.43 µM (inactive) | 2.65 µM (inactive)
4 | CCC1(C(=O)OC(C)(C)C)OC12C(C)CCCC2C (centres undefined) | 57.9 µM (inactive) | 24.2 µM (inactive) | 33.7 µM (inactive) | 18.3 µM (inactive) | 36 | 39.5 µM (inactive) | 45 µM (inactive) | 83.6 µM (inactive) | 24.5 µM (inactive) | > 100 µM (inactive) | 28.1 µM (inactive) | > 100 µM (inactive) | 43.1 µM (inactive) | > 100 µM (inactive) | > 100 µM (inactive) | 73.6 µM (inactive) | 48.9 µM (inactive) | 32.9 µM (inactive) | 41.3 µM (inactive) | 50.4 µM (inactive)
5 | CC1=CC(=O)/C(=C/NC(=S)c2ccncc2)C(=O)O1 | > 100 µM (inactive) | > 100 µM (inactive) | > 100 µM (inactive) | > 100 µM (inactive) | > 100 | > 100 µM (inactive) | 68.1 µM (inactive) | > 100 µM (inactive) | > 100 µM (inactive) | > 100 µM (inactive) | > 100 µM (inactive) | > 100 µM (inactive) | > 100 µM (inactive) | > 100 µM (inactive) | > 100 µM (inactive) | > 100 µM (inactive) | > 100 µM (inactive) | 61.9 µM (inactive) | > 100 µM (inactive) | > 100 µM (inactive)
6 | C/C(=C\COc1ccc2ccc(=O)oc2c1)CCC(=O)C(C)(C)O | 24 µM (inactive) | 31.3 µM (inactive) | 29.2 µM (inactive) | 19.9 µM (inactive) | 17.1 | 23.2 µM (inactive) | 26.5 µM (inactive) | 33 µM (inactive) | 19.4 µM (inactive) | 27.9 µM (inactive) | 51.9 µM (inactive) | 40.8 µM (inactive) | 41.8 µM (inactive) | 21 µM (inactive) | 39.9 µM (inactive) | 36 µM (inactive) | 32.7 µM (inactive) | 68.1 µM (inactive) | 39.3 µM (inactive) | 18.3 µM (inactive)
7 | O=C1C(c2ccc([N+](=O)[O-])cc2)=C(Cl)C(=O)c2c(O)cccc21 | 25.3 µM (inactive) | 18.5 µM (inactive) | 23.7 µM (inactive) | 52.6 µM (inactive) | 25.5 | 21 µM (inactive) | > 43.2 µM (inactive) | 18.1 µM (inactive) | 7.87 µM (inactive) | 28.4 µM (inactive) | 17.3 µM (inactive) | 40.7 µM (inactive) | 23.1 µM (inactive) | 20.2 µM (inactive) | 18.9 µM (inactive) | 50.8 µM (inactive) | 22.5 µM (inactive) | 35.3 µM (inactive) | 20.2 µM (inactive) | 19.7 µM (inactive)
